“Also recorded” adds a separate entry of the source.
How the values were obtained:
D1L3 = conditions: cited from earlier work
[1] = tested on: bone marrow-derived macrophages; assay: BT activity of media conditioned by Ifn-γ treated bone marrow-derived macrophages, overlaid on HeLa cells; format: cell-based, C57BL mice; conditions: 100 U/ml; b134: 1000 U/ml vs 100U/ml
Excerpt: FIG. 29. Media conditioned by Ifn-γ treated macrophages from C57BI, but not NZB/W F1 mice is able to confer an in vitro barrier to liposomal gene transduction (BT). Panel A: Media conditioned by interferon-g (Ifn-γ) treated bone marrow-derived macrophages from C57 BL confers a barrier to liposomal transfection to HeLa. […] Panel B: As interferon dose increased, the ability by C57BL macrophages to confer a barrier to transfection increased. In the absence of Ifn-γ, macrophages confer a weaker barrier. Panel C: Interferon gamma induces both DNASE activity by RDA and a DNASE band compatible with DNASE1L3 at 28 kD, plus induces a BT activity. Samples were from macrophages from two C57BL mice (B1 and B2). In the left register is pre- and post interferon RDAs, in the middle register, pre and post interferon, and in the right register are the BT assays (GFP immunoblots of tranfected HeLa cells) on HeLa cells, including HeLa cells treated directly with interferon gamma for 48 hours. Media conditioned for 48 hours. Panel D: BT activity in macrophage-conditioned media from NZB/W F1 (NZ) or C57BL (BL). […]
(§1) Assays of Murine Cells. […] Splenocytes were counted using a hemochromocytometer, and plated at 2 million cells/ml on plastic 6-well Falcon tissue culture dishes (Becton Dickinson) in RPMI with 10% FCS. […]

bone marrow macrophages = assay: Induction of D1L3 in cultured bone marrow macrophages (anti-D1L3 immunoblot, RDA, zymogram); format: cell-based, C57BL mice; conditions: 100 U/ml for the interferons
Method: FIG. 22. Normal and induced expression of D1L3 in murine macrophages. […] In anti-D1L3 blots of cell lysates, the protein is seen both as a ^˜34 kDa uncleaved molecule and a ^˜28 kDa cleaved molecule. […] Cells were plated on serum-coated tissue culture dishes and incubated overnight, the next morning, non-adherent cells (N) were rinsed vigorously with PBS 1×, and both adeherent (A) and non-adherent cells (N) from C57BL, NZB/W, BXSB, and MRL were lysed and immunoblotted with anti-D1L3. While the ^˜34 kDa size band consistent with uncleaved D1L3 is present in both adherent and non-adherent, the cleaved form (^˜28 kDa) is present almost exclusively in the adherent population of presumed macrophages. Also noticable are the higher levels of expression of D1L3 in the 3 latter lupus strains. Panel B: Untreated bone marrow macrophages from NZB/WF1 mice have a much higher baseline expression expression of D1L3 than C57BL macrophages.
Induction is present in macrophages from both strain though the absolute level of induction appears greater in C57BL than in the SLE-prone NZB/W F1 strain. NZB/W protein loads in Ifn-γ-negative lane is slightly underloaded relative to actin. Panel C: Bone marrow macrophages isolated from bone marrow (via adherence) from MRL and C57BL mice, and cultured for 2 days in vitro, were induced by Ifn-γ. […] No induction of D1L3, RDA-DNASE, or zymographic DNASE activity is evident upon tratement with 100 U/ml of Ifn-alpha. […] Panel D: Bone marrow macrophages from C57BL and MRL mice cultured for 7 days in the presence of GM-CSF were induced with Ifn-γ, again showing the higher baseline levels of 28 kDa enzyme in the lupus prone strain, and in C57BL showing induction of levels aftern Ifn-γ. […]
as §1

HeLa cells = assay: BT assay: liposomal N1-eGFP transfection of HeLa cells in DNASE-conditioned media, GFP immunoblot; format: cell-based; conditions: equivalent doses of Ifn-γ, no macrophages
Method: In the main assay, an eukaryotic marker such as green fluorescent protein (GFP) expression plasmid complexed with a lipid reagent is transfected into HeLa cells incubated in control media, D1L3-conditioned media, or D1-conditioned media (FIG. 4). The assay is not limited to the use of GFP as a marker, but could use any of many expressed biomarkers encoded by nucleotides that can be assayed either immunochemistry, fluorescent detection, or enzymatic detectection, and these include but are not circumscribed to luciferase, chloramphenicol acetyl-transferase, antibiotic or chemical resistance genes, Beta-galactosidase, FLAG-, myc-hemaglutinnin-, or other epitope tagged molecules, as well as other markers of gene or nucleotide transduction. The endpoint of the assay is the detection of a synthesized protein, but could easily have been the detection of a transcribed gene product, since the assay ultimately measures the ability of D1L3 added the media/milieu overlaying the cells to block the ultimate association of an expressible plasmid with the transcriptional machinery.
Transfection Reagents and Resistance Assays. Lipofection of respective pcDNA3.1-D1 or -D3 ([…] purified with Promega Wizard Plus DNA system) was performed independently into 1-2 million HeLa cells, which produce a low background of secreted nuclease activity, when grown in DMEM with 10% FCS (LifeTech) in 6 well culture plates (Becton-Dickinson). […] Media of the transfected cells were conditioned for 36-48 hours and served as source of the respective enzymes. Nuclease activity in conditioned supernatant was measured by RDAs, zymograms and by testing activity against supercoiled pBluescript (Stratagene).
To test for the ability of the nucleases to block transfection, the media in individual wells of naive HeLa cells were replaced with conditioned media, and cells transfected with […] of N1-eGFP plasmid (Clontech) using various transfection reagents (FIG. 11) and their respective protocols. GFP expression by immunoblot directly correlated with transfection efficiency in present experiments. Thus, transfection efficiency was compared by densitometric analysis of GFP immunoblots.
GFP expression was also examined by fluorescent microscopy using a FITC filter. For microscopy, cells were fixed for 5 minutes in 4% paraformaldehyde dissolved into 1% PBS.
Antibody Reagents and Immunoblotting. After 24-36 hours, cells transfected with N1-eGFP were lysed in SDS-buffer and immunoblotted for expression with anti-GFP at 1:5000 dilution (Clontech). To confirm nearly equal protein loading per lane, anti-β-actin monoclonal antibody at 1:7,000 dilution (Sigma) were prepared. For immunoblots, […] protein was eletrophoretically separated by 12% SDS-PAGE gel, followed by electrotransfer to Immobilon-P membranes (Millipore) for expression studies. Immunoblotting was performed using ECL detection (Amersham).
Transfection efficiency was compared, wherever possible, by pixel densitometry of the scanned images using Scion Image 4.02 software.

Compound | effect on D1L3 DNASE activity (D1L3) | BT activity of media conditioned by treated macrophages [1] | induction of D1L3 in macrophages (bone marrow macrophages) | BT of HeLa cells treated with Ifn-γ or of media conditioned by them (HeLa cells)
O=C(O)CN(CCN(CC(=O)O)CC(=O)O)CC(=O)O [EDTA] | block D1L3 DNASE activity |  |  | 
[Zn+2] [zinc] | block D1L3 DNASE activity |  |  | 
Ifn-γ: interferon-gamma (Genzyme), macrophage activator |  | confers BT; also recorded: Increased BT activity | inducible; also recorded: significant induction of D1L3 levels | neither confer nor possess a BT

From US20040138156A1, “Therapeutic regulation of deoxyribonuclease-1-like-3 activity” (priority 2002, published 2004)
